Legend:
Assay in all cases: relative viability (nuclei count vs DMSO), 5 days (fraction); higher = more cells survive
[1] = tested on: EKVX
Outline: (§1)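 A single step with final 0.05% Triton X-100, 1% formaldehyde and 1 ug/ml Hoechst fixed the cells and stained nuclei 5 days after treatment. Lung cancer cell lines in 1536-well plates had been treated by pin tool the day after seeding with one drug alone or a fixed anchor-drug dose plus five library-drug doses (not always all listed) in √10 steps, and nuclei were counted on 4× images. Relative viability is the ratio of nuclei in treated wells to nuclei in vehicle wells, taken as the median of duplicate plates.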

[2] = tested on: HARA
Outline: as §1

[3] = tested on: HOP-62
Outline: as §1

[4] = tested on: NCI-H1355
Outline: as §1

[5] = tested on: NCI-H1395
Outline: as §1

[6] = tested on: NCI-H1734
Outline: as §1

[7] = tested on: NCI-H1755
Outline: as §1

[8] = tested on: NCI-H1793
Outline: as §1

[9] = tested on: NCI-H1993
Outline: as §1

[10] = tested on: NCI-H2170
Outline: as §1

[11] = tested on: NCI-H2342
Outline: as §1

[12] = tested on: NCI-H2347
Outline: as §1

[13] = tested on: NCI-H322M
Outline: as §1

[14] = tested on: NCI-H358
Outline: as §1

[15] = tested on: NCI-H522
Outline: as §1

[16] = tested on: NCI-H647
Outline: as §1

[17] = tested on: NCI-H838
Outline: as §1

[18] = tested on: PC-14
Outline: as §1

`COc1cc(N2CCC(C(N)=O)CC2)ccc1Nc1nc(N)c(Cl)c(Nc2ccccc2S(=O)(=O)C(C)C)n1` [HG-5-88-01] + NC(=O)Nc1cc(-c2cccc(F)c2)sc1C(=O)N[C@H]1CCCNC1 [AZD7762] (partner 0.2 µM) showed a relative viability ([1]; first compound 0.04 µM) of 0.673, a relative viability ([1]; first compound 0.1265 µM) of 0.622 and a relative viability ([1]; first compound 0.4 µM) of 0.695. It also gave a relative viability ([1]; first compound 4 µM) of 0.527, a relative viability ([2]; first compound 0.04 µM) of 0.493 and a relative viability ([2]; first compound 0.1265 µM) of 0.313. The relative viability ([2]; first compound 0.4 µM) was 0.332, the relative viability ([2]; first compound 1.265 µM) was 0.352 and the relative viability ([2]; first compound 4 µM) was 0.322. It also gave a relative viability ([3]; first compound 0.04 µM) of 0.463, a relative viability ([3]; first compound 0.1265 µM) of 0.736 and a relative viability ([3]; first compound 0.4 µM) of 0.654. It also gave a relative viability ([3]; first compound 1.265 µM) of 0.55, a relative viability ([3]; first compound 4 µM) of 0.584 and a relative viability ([4]; first compound 0.04 µM) of 0.714. The relative viability ([4]; first compound 0.1265 µM) was 0.731, the relative viability ([4]; first compound 0.4 µM) was 0.762 and the relative viability ([4]; first compound 1.265 µM) was 0.69. For the same compound, the relative viability ([4]; first compound 4 µM) was 0.474, the relative viability ([5]; first compound 0.04 µM) was 0.366 and the relative viability ([5]; first compound 0.1265 µM) was 0.403. It also gave a relative viability ([5]; first compound 0.4 µM) of 0.418, a relative viability ([5]; first compound 1.265 µM) of 0.384 and a relative viability ([5]; first compound 4 µM) of 0.362. For the same compound, the relative viability ([6]; first compound 0.04 µM) was 0.515, the relative viability ([6]; first compound 0.1265 µM) was 0.514 and the relative viability ([6]; first compound 0.4 µM) was 0.52. It also gave a relative viability ([6]; first compound 1.265 µM) of 0.511, a relative viability ([6]; first compound 4 µM) of 0.724 and a relative viability ([7]; first compound 0.04 µM) of 0.465. For the same compound, the relative viability ([7]; first compound 0.1265 µM) was 0.476, the relative viability ([7]; first compound 0.4 µM) was 0.419 and the relative viability ([7]; first compound 1.265 µM) was 0.449. For the same compound, the relative viability ([7]; first compound 4 µM) was 0.516, the relative viability ([8]; first compound 0.04 µM) was 0.557 and the relative viability ([8]; first compound 0.1265 µM) was 0.409. For the same compound, the relative viability ([8]; first compound 0.4 µM) was 0.379, the relative viability ([8]; first compound 1.265 µM) was 0.452 and the relative viability ([8]; first compound 4 µM) was 0.186. The relative viability ([9]; first compound 0.04 µM) was 0.845, the relative viability ([9]; first compound 0.1265 µM) was 0.875 and the relative viability ([9]; first compound 0.4 µM) was 0.77. It also gave a relative viability ([9]; first compound 4 µM) of 0.558, a relative viability ([10]; first compound 0.04 µM) of 0.819 and a relative viability ([10]; first compound 0.1265 µM) of 0.878. It also gave a relative viability ([10]; first compound 0.4 µM) of 0.907, a relative viability ([10]; first compound 1.265 µM) of 0.402 and a relative viability ([10]; first compound 4 µM) of 0.934. The relative viability ([11]; first compound 0.04 µM) was 0.47, the relative viability ([11]; first compound 0.1265 µM) was 0.489 and the relative viability ([11]; first compound 0.4 µM) was 0.447. It also gave a relative viability ([11]; first compound 4 µM) of 0.408, a relative viability ([12]; first compound 0.04 µM) of 0.881 and a relative viability ([12]; first compound 0.1265 µM) of 0.9. It also gave a relative viability ([12]; first compound 0.4 µM) of 0.82, a relative viability ([12]; first compound 1.265 µM) of 0.718 and a relative viability ([12]; first compound 4 µM) of 0.804. It also gave a relative viability ([13]; first compound 0.04 µM) of 0.665, a relative viability ([13]; first compound 0.1265 µM) of 0.61 and a relative viability ([13]; first compound 0.4 µM) of 0.465. It also gave a relative viability ([13]; first compound 1.265 µM) of 0.454, a relative viability ([13]; first compound 4 µM) of 0.466 and a relative viability ([14]; first compound 0.04 µM) of 0.498. For the same compound, the relative viability ([14]; first compound 0.1265 µM) was 0.503, the relative viability ([14]; first compound 0.4 µM) was 0.451 and the relative viability ([14]; first compound 1.265 µM) was 0.223. It also gave a relative viability ([14]; first compound 4 µM) of 0.245, a relative viability ([15]; first compound 0.04 µM) of 0.795 and a relative viability ([15]; first compound 0.1265 µM) of 0.842. It also gave a relative viability ([15]; first compound 0.4 µM) of 0.779, a relative viability ([15]; first compound 1.265 µM) of 0.846 and a relative viability ([15]; first compound 4 µM) of 0.681. The relative viability ([16]; first compound 0.04 µM) was 0.455, the relative viability ([16]; first compound 0.1265 µM) was 0.405 and the relative viability ([16]; first compound 0.4 µM) was 0.472. The relative viability ([16]; first compound 1.265 µM) was 0.394, the relative viability ([16]; first compound 4 µM) was 0.433 and the relative viability ([17]; first compound 0.04 µM) was 0.917. For the same compound, the relative viability ([17]; first compound 0.1265 µM) was 0.958, the relative viability ([17]; first compound 0.4 µM) was 0.881 and the relative viability ([17]; first compound 1.265 µM) was 0.749. It also gave a relative viability ([17]; first compound 4 µM) of 0.847, a relative viability ([18]; first compound 0.04 µM) of 0.345 and a relative viability ([18]; first compound 0.1265 µM) of 0.315. For the same compound, the relative viability ([18]; first compound 0.4 µM) was 0.343, the relative viability ([18]; first compound 1.265 µM) was 0.38 and the relative viability ([18]; first compound 4 µM) was 0.0818.

Source: the supplement of paper PMC10307832
